This passage reports melting point results from US6410530B1, “Substituted 1,2,3,4-tetrahydronaphthalene derivatives” (AstraZeneca AB, priority 1996, dated 2002).

Turning to `CN1CCN(c2cccc3c2C[C@@H](NC(=O)c2ccc(C(F)(F)F)cc2)CC3)CC1` [Example 66, (S)-N-[8-(4-Methylpiperazin-1-yl)-1,2,3,4-tetrahydro-2-naphthyl]-4-trifluoromethylbenzamide], the melting point (commonly the temperature of the solid-liquid transition) is 202 to 204 °C. Turning to `Cc1cc(C(=O)N[C@@H]2CCc3cccc(N4CCN(C)CC4)c3C2)ccc1N1CCOCC1` [Example 61, (R)-N-[8-(4-Methylpiperazin-1-yl)-1,2,3,4-tetrahydro-2-naphthyl]-3-methyl-4-morpholinobenzamide], the melting point was 172 to 175 °C. Under `CN1CCC(c2cccc3c2C[C@H](NC(=O)c2ccc(C(F)(F)F)cc2)CC3)CC1` [Example 99, (R)-N-[8-(1-Methylpiperidine-4yl)-1,2,3,4-tetrahydro-2-naphthyl]-4-trifluoromethylbenzamide] stands 163 to 166 °C; under `CN1CCN(c2cccc3c2C[C@H](NC(=O)c2ccc(Cc4ccccc4)cc2)CC3)CC1` [Example 75, (R)-N-[8-(4-Methylpiperazin-1-yl)-1,2,3,4-tetrahydro-2-naphthyl]-4-benzylbenzamide], 191 to 192 °C; under `CN1CCN(c2cccc3c2C[C@H](NC(=O)c2csc(-c4ccncc4)n2)CC3)CC1` [Example 47, (R)-N-[8-(4-Methylpiperazin-1-yl)-1,2,3,4-tetrahydro-2-naphthyl]-2-(4-pyridyl)thiazole-4-carboxamide], 187 to 188 °C. Under `CN1CCN(c2cccc3c2C[C@H](NC(=O)c2ccc(Br)cc2)CC3)CC1` [Example 73, (R)-N-[8-(4-Methylpiperazin-1-yl)-1,2,3,4-tetrahydro-2-naphthyl]-4-bromobenzamide] stands 200 to 201 °C; under `CN1CCN(c2cccc3c2C[C@H](NC(=O)c2ccc(-c4ccccc4)cc2)CC3)CC1` [Example 44, (R)-N-[8-(4-Methylpiperazin-1-yl)-1,2,3,4-tetrahydro-2-naphthyl]-1,1′-biphenyl-4-carboxamide], 232 to 233 °C. Turning to `CN1CCN(c2cccc3c2C[C@H](NC(=O)c2ccccc2OS(C)(=O)=O)CC3)CC1` [Example 93, (R)-N-[8-(4-Methylpiperazin-1-yl)-1,2,3,4-tetrahydro-2-naphthyl]-2-methylsulfonyloxybenzamide], the melting point is 144 to 145 °C. Under `CN1CCN(c2cccc3c2C[C@H](NS(C)(=O)=O)CC3)CC1` stands 135 to 137 °C; under `CCCCCN1CCN(c2cccc3c2C[C@H](NC(C)=O)CC3)CC1` [Example 30, (R)-N-[8-(4-Pentylpiperazin-1-yl)-1,2,3,4-tetrahydro-2-naphthyl]acetamide], 119 to 120 °C; under `CC(=O)N[C@@H]1CCc2cccc(N3CCN(C)CC3)c2C1`, 152 to 154 °C.

Molecule `CN1CCN(c2cccc3c2C[C@@H](NC(=O)c2ccc(N4CCOCC4)cc2)CC3)CC1` [Example 55, (S)-N-[8-(4-Methylpiperazin-1-yl)-1,2,3,4-tetrahydro-2-naphthyl]-4-morpholinobenzamide] registered a melting point of 228 to 230 °C. Then `CCCC(=O)N[C@@H]1CCc2cccc(N3CCN(C)CC3)c2C1`, with 131 to 132 °C; and `CN1CCN(c2cccc3c2C[C@H](NC(=O)c2ccc(Cl)cc2)CC3)CC1` [Example 74, (R)-N-[8-(4-Methylpiperazin-1-yl)-1,2,3,4-tetrahydro-2-naphthyl]-4-chlorobenzamide], with 204 to 205 °C; and `CN1CCN(c2cccc3c2C[C@H](NC(=O)c2ccc(C(F)(F)F)cc2)CC3)CC1` [Example 65, (R)-N-[8-(4-Methylpiperazin-1-yl)-1,2,3,4-tetrahydro-2-naphthyl]-4-trifluoromethylbenzamide], with 203 to 204 °C. Under `O=C(N[C@@H]1CCc2cccc(N3CCNCC3)c2C1)c1ccc(N2CCOCC2)cc1` [Example 53, (R)-N-[8-(Piperazin-1-yl)-1,2,3,4-tetrahydro-2-naphthyl]-4-morpholinobenzamide] stands 202 to 203 °C; under `CCCCOc1ccc(C(=O)N[C@@H]2CCc3cccc(C4CCN(C)CC4)c3C2)cc1` [Example 100, (R)-N-[8-(1-Methylpiperidin-4-yl)-1,2,3,4-tetrahydro-2-naphthyl]-4-butoxybenzamide], 162 to 164 °C; under `Cc1ccccc1C(=O)N[C@@H]1CCc2cccc(N3CCN(C)CC3)c2C1` [Example 90, (R)-N-[8-(4-Methylpiperazin-1-yl)-1,2,3,4-tetrahydro-2-naphthyl]-2-methylbenzamide], 179 to 180 °C. Under `CN1CCN(c2cccc3c2C[C@H](NC(=O)c2ccc(N4CCSCC4)cc2)CC3)CC1` [Example 125, (R)-N-[8-(4-Methylpiperazin-1-yl)-1,2,3,4-tetrahydro-2-naphthyl]-4-thiomorpholinobenzamide] stands 190 to 191 °C; under `CCCN1CCN(c2cccc3c2C[C@H](NC(=O)c2ccc(N4CCOCC4)cc2)CC3)CC1` [Example 57, (R)-N-[8-(4-Propylpiperazin-1-yl)-1,2,3,4-tetrahydro-2-naphthyl]-4-morpholinobenzamide], 183 to 185 °C. For `CCCCOc1ccc(C(=O)N[C@H]2CCc3cccc(N4CCN(C)CC4)c3C2)cc1` [Example 71, (S)-N-[8-(4-Methylpiperazin-1-yl)-1,2,3,4-tetrahydro-2-naphthyl]-4-butoxybenzamide], the melting point was 190 to 192 °C.

As to `CN1CCN(c2cccc3c2C[C@H](NC(=O)c2cccc(O)c2)CC3)CC1` [Example 88, (R)-N-[8-(4-Methylpiperazin-1-yl)-1,2,3,4-tetrahydro-2-naphthyl]-3-hydroxybenzamide], the melting point is 117 °C (dec.). `CN1CCN(c2cccc3c2C[C@H](NC(=O)c2cccc(Oc4ccccc4)c2)CC3)CC1` [Example 87, (R)-N-[8-(4-Methylpiperazin-1-yl)-1,2,3,4-tetrahydro-2-naphthyl]-3-phenoxybenzamide]: the melting point is 136 to 137 °C.

Molecule `CN1CCN(c2cccc3c2C[C@H](NC(=O)c2ccc(C4CCCCC4)cc2)CC3)CC1` [Example 63, (R)-N-[8-(4-Methylpiperazin-1-yl)-1,2,3,4-tetrahydro-2-naphthyl]-4-cyclohexylbenzamide] yielded a melting point of 224 to 226 °C. Under `CN1CCN(c2cccc3c2C[C@H](N(C)C(=O)c2ccc(C(F)(F)F)cc2)CC3)CC1` [Example 122, (R)-N-Methyl-N-[8-(4-methylpiperazin-1-yl)-1,2,3,4-tetrahydro-2-naphthyl]-4-trifluoromethylbenzamide] stands 123 to 125 °C; under `CN1CCN(c2cccc3c2CC[C@H](NC(=O)c2ccc(N4CCOCC4)cc2)C3)CC1` [Example 119, (S)-N-[5-(4-Methylpiperazin-1-yl)-1,2,3,4-tetrahydro-2-naphthyl]-4-morpholinobenzamide], 129 to 131 °C. The molecule `CN1CCN(c2cccc3c2C[C@H](NC(=O)Cc2ccccc2)CC3)CC1` [Example 80, (R)-N-[8-(4-Methylpiperazin-1-yl)-1,2,3,4-tetrahydro-2-naphthyl]phenylacetamide] showed a melting point of 151 to 152 °C.
